Where two headings read alike, the source gives them in different places.
Legend:
response to Ang I = assay: Response to injected Ang I in pretreated Wistar Kyoto rats; type: in vivo; conditions: Wistar Kyoto rats pretreated with (+)-fadrozole hydrochloride or valsartan 5 mg/kg/d; comparison of the two pretreatments
Experimental: The rats are divided into 5 groups: group 1, control (n=40); Group 2, valsartan (5 mg/kg/d; n=40); Group 3, the (+)-enantiomer of the hydrochloride of fadrozole (n=30); Group 4, a combination of the (+)-enantiomer of the hydrochloride of fadrozole and valsartan (5 mg/kg/d); n=30) and Group 5, valsartan (50 mg/kg/d; n=30). The drugs are administered in drinking fluid.

pressor effect of Ang II = conditions: Ang II at 1 mg/kg, normotensive rats, cited from earlier work

Row | Compound | response to Ang I injected (response to Ang I) | reduction of the pressor effect of Ang II (pressor effect of Ang II; valsartan 5 mg/kg/d) | reduction of the pressor effect of Ang II (pressor effect of Ang II; valsartan 50 mg/kg/d)
1 | Cl.N#Cc1ccc([C@H]2CCCc3cncn32)cc1 [(+)-enantiomer of the hydrochloride of fadrozole] | similar | – | –
2 | CCCCC(=O)N(Cc1ccc(-c2ccccc2-c2nnn[nH]2)cc1)[C@H](C(=O)O)C(C)C [valsartan, (S)-N-(1-carboxy-2-methylprop-1-yl)-N-pentanoyl-N-[2′(1H-tetrazol-5-yl)biphenyl-4-yl-methyl]amine] | similar | 49% | 73%
